This passage reports MIC results from patent US20260274892A1, “MACROCYCLIC BROAD SPECTRUM ANTIBIOTICS” (RQx Pharmaceuticals, Inc., priority 2017, published 2026).

The subject of assay [1] is Escherichia coli ATCC 25922. Briefly: Minimum inhibitory concentration (MIC), CLSI broth micro-dilution, E. coli. The settings on record: Escherichia coli, ATCC25922, 22 h, Table 6, cation adjusted Mueller Hinton Broth + 0.002% Tween-80, 35° C. Type of assay: cell-based. The essentials:
(§1)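 Antibacterial potency is measured as MIC by the CLSI broth dilution method. Bacteria at OD600 0.0005 in Tween-80-supplemented cation-adjusted Mueller Hinton broth face ten twofold compound dilutions for 22 h at 35° C.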
On the technique in general: Broth dilution looks for growth in wells or tubes with falling amounts of substance.

Assay [2] concerns Methicillin Resistant Staphylococcus aureus strain USA 200. The assay can be described thus: Minimum inhibitory concentration (MIC), CLSI broth micro-dilution, S. aureus. Format: cell-based. The following applies: Staphylococcus aureus, MRSA / USA200; Table 6; MRSA USA 200; cation adjusted Mueller Hinton Broth + 0.002% Tween-80; 35° C., 22 hours. The essentials:
as §1

Regarding `Cc1nc(-c2ccc(N3CCC(C(C)(C)C)CC3)cc2)nc(C)c1C(=O)N[C@@H](CCN)C(=O)N(C)[C@@H]1C(=O)N[C@@H](C)C(=O)N[C@H](C(=O)NCC#N)Cc2ccc(OCCN)c(c2)-c2cc1ccc2OCCN` (racemic) [Compound 320, rac-(8S,11S,14S)-3,18-bis(2-aminoethoxy)-N-(cyanomethyl)-11-methyl-14-[methyl-[rac-(2S)-4-amino-2-[[2-[4-(4-tert-butyl-1-piperidyl)phenyl]-4,6-dimethyl-pyrimidine-5-carbonyl]amino]butanoyl]amino]-10,13-dioxo-9,12-diazatricyclo[13.3.1.12,6]icosa-1(18),2(20),3,5,15(19),16-hexaene-8-carboxamide], the MIC (as a rule, the smallest concentration in the dilution series that meets the test's criterion for growth inhibition) in assay [1] was 0.19 µM; in assay [2], 0.016 µM.
For the molecule `CCCCCCc1ncc(-c2ccc(C(=O)N[C@@H](CCN)C(=O)N(C)[C@@H]3C(=O)N[C@@H](C)C(=O)N[C@H](C(=O)NCC#N)Cc4ccc(OCCN)c(c4)-c4cc3ccc4OCCN)c(C)c2)cn1` (racemic) [Compound 204, rac-(8S,11S,14S)-3,18-bis(2-aminoethoxy)-N-(cyanomethyl)-11-methyl-14-[methyl-[rac-(2S)-4-amino-2-[[4-(2-hexylpyrimidin-5-yl)-2-methyl-benzoyl]amino]butanoyl]amino]-10,13-dioxo-9,12-diazatricyclo[13.3.1.12,6]icosa-1(18),2(20),3,5,15(19),16-hexaene-8-carboxamide], the results for the MIC in assay [1] and in assay [2] were 2.1 µM and 0.032 µM, respectively.
For `Cc1nc(-c2ccc(C(C)(C)C)cc2)nc(C)c1C(=O)N[C@@H](CCN)C(=O)N(C)[C@@H]1C(=O)N[C@@H](C)C(=O)N[C@H](C(=O)NCC#N)Cc2ccc(OCCN)c(c2)-c2cc1ccc2O` (racemic) [Compound 553, rac-(8S,11S,14S)-3-(2-aminoethoxy)-N-(cyanomethyl)-18-hydroxy-11-methyl-14-[methyl-[rac-(2S)-4-amino-2-[[2-(4-tert-butylphenyl)-4,6-dimethyl-pyrimidine-5-carbonyl]amino]butanoyl]amino]-10,13-dioxo-9,12-diazatricyclo[13.3.1.12,6]icosa-1(18),2(20),3,5,15(19),16-hexaene-8-carboxamide], in that order: 0.21 µM and 0.055 µM.
For the molecule `Cc1nc(-c2ccc(CC(C)C)cc2)nc(C)c1C(=O)N[C@@H](CCN)C(=O)N(C)[C@@H]1C(=O)N[C@@H](C)C(=O)N[C@H](C(=O)NCC#N)Cc2ccc(OCCN)c(c2)-c2cc1ccc2OCCN` (racemic) [Compound 258, rac-(8S,11S,14S)-3,18-bis(2-aminoethoxy)-N-(cyanomethyl)-11-methyl-14-[methyl-[rac-(2S)-4-amino-2-[[2-(4-isobutylphenyl)-4,6-dimethyl-pyrimidine-5-carbonyl]amino]butanoyl]amino]-10,13-dioxo-9,12-diazatricyclo[13.3.1.12,6]icosa-1(18),2(20),3,5,15(19),16-hexaene-8-carboxamide], the MIC in assay [1] stood at 0.13 µM; in assay [2] it was 0.012 µM.
Regarding `Cc1nc(-c2ccc3c(c2)CCC3(C)C)nc(C)c1C(=O)N[C@@H](CCN)C(=O)N(C)[C@@H]1C(=O)N[C@@H](C)C(=O)N[C@H](C(=O)NCC#N)Cc2ccc(O)c(c2)-c2cc1ccc2OCCN` (racemic) [Compound 531, rac-(8S,11S,14S)-18-(2-aminoethoxy)-N-(cyanomethyl)-3-hydroxy-11-methyl-14-[methyl-[rac-(2S)-4-amino-2-[[2-(1,1-dimethylindan-5-yl)-4,6-dimethyl-pyrimidine-5-carbonyl]amino]butanoyl]amino]-10,13-dioxo-9,12-diazatricyclo[13.3.1.12,6]icosa-1(18),2(20),3,5,15 8-carboxamide], the values for the MIC in assay [1] and in assay [2] were 0.25 µM and 0.047 µM, respectively.
